Legend:
Type in all cases: biochemical
MMP-7 full-length = molecular target: T1, MMP-7 full-length (Homo sapiens, UniProt P09237); experiment: Thiopeptolide substrate hydrolysis inhibition assay, MMP-7 full-length; conditions: full-length enzyme; read-out: MMP-7FL IC50
T1 construct: MMP-3 catalytic domain, MMP-7 full-length, MMP-8 full-length
T1 sequence (P09237 95-267): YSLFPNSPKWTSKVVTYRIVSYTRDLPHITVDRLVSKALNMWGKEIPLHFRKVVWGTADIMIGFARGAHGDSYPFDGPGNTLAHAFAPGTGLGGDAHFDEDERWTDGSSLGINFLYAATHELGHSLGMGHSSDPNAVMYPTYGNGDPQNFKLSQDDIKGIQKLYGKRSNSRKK
Text: (§1) The assay methods of Biological Examples 1-4 measure the amount by which a test compound reduces the hydrolysis of a thiopeptolide substrate catalyzed by a matrix metalloproteinase enzyme or catalytic domain thereof. It has been shown previously by Ye Qi-Zhuang, Hupe D., and Johnson L. (Current Medicinal Chemistry, 1996;3:407-418) that inhibitor activity against a catalytic domain of an MMP is predictive of the inhibitor activity against the respective full-length MMP enzyme. The methods described below for the inhibition of MMP-13 may also be adapted and used to determine the ability of the compounds of Formula I to inhibit other matrix metalloproteases such as MMP-1, MMP-2, MMP-3, MMP-7, MMP-8, MMP-9, MMP-12, MMP-14, MMP-17, and the like.
(§2) Thiopeptolide substrates show virtually no decomposition or hydrolysis at or below neutral pH in the absence of a matrix metalloproteinase enzyme. A typical thiopeptolide substrate commonly utilized for assays is Ac-Pro-Leu-Gly-thioester-Leu-Leu-Gly-OEt. A 100 μL assay mixture will contain 50 mM of N-2-hydroxyethylpiperazine-N′-2-ethanesulfonic acid buffer (“HEPES,” pH 7.0), 10 mM CaCl2, 100 μM thiopeptolide substrate, and 1 mM 5,5′-dithio-bis-(2-nitro-benzoic acid) (DTNB). […] The change in absorbance at 405 nm is monitored on a Thermo Max microplate reader (molecular Devices, Menlo Park, Calif.) at room temperature (22° C.). The calculation of the amount of hydrolysis of the thiopeptolide substrate is based on E412=13600 M^−1 cm^−1 for the DTNB-derived product 3-carboxy-4-nitrothiophenoxide. Assays are carried out with and without matrix metalloproteinase inhibitor compounds, and the amount of hydrolysis is compared for a determination of inhibitory activity of the test compounds.
(§3) Test compounds were evaluated at various concentrations in order to determine their respective IC50 values, the micromolar concentration of compound required to cause a 50% inhibition of catalytic activity of the respective enzyme.
(§4) Some representative compounds of Formula I have been evaluated for their ability to inhibit MMP-13, MMP-1FL, MMP-3CD, MMP-7FL, MMP-8FL, MMP-9FL, MMP-12CD, MMP-14CD, and/or MMP-17CD, wherein FL means full-length enzyme and CD means a catalytic domain of the full-length enzyme. Test compounds can be evaluated at various concentrations in order to determine their respective IC50 values, the micromolar concentration of compound required to cause a 50% inhibition of the hydrolytic activity of the respective enzyme.
(§5) Certain compounds of Formula I have also been assayed with MMP-1 full-length, MMP-3 catalytic domain, MMP-7 full-length, MMP-8 full-length, MMP-9 full-length, MMP-12 catalytic domain, MMP-14 catalytic domain, and MMP-17 catalytic domain. […] In Biological Table 2, the compound example numbers for the Compound Examples are indicated in the column labelled “Ex. No.”

MMP-3 catalytic domain = molecular target: T2, MMP-3 catalytic domain (Homo sapiens, UniProt P08254); experiment: Thiopeptolide substrate hydrolysis inhibition assay, MMP-3 catalytic domain; conditions: MES buffer pH 6.0, read-out: MMP-3CD IC50
T2 construct: MMP-1 full-length, MMP-3 catalytic domain, MMP-7 full-length
T2 sequence (P08254 100-272 limits assumed): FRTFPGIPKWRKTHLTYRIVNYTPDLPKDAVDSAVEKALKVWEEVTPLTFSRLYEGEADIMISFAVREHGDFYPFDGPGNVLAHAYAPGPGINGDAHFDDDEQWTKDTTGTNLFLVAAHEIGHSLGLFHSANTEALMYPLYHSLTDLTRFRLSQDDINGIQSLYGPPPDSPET
Text: as §1, §2, §3
It should be appreciated that the assay buffer used with MMP-3CD was 50 mM N-morpholinoethane sulfonate (“MES”) at pH 6.0 rather than the HEPES buffer at pH 7.0 described above.
as §4, §5

MMP-8 full-length = molecular target: T3, MMP-8 full-length (Homo sapiens, UniProt P22894); experiment: Thiopeptolide substrate hydrolysis inhibition assay, MMP-8 full-length; conditions: full-length enzyme; read-out: MMP-8FL IC50
T3 construct: MMP-7 full-length, MMP-8 full-length, MMP-9 full-length
T3 sequence (P22894 101-467): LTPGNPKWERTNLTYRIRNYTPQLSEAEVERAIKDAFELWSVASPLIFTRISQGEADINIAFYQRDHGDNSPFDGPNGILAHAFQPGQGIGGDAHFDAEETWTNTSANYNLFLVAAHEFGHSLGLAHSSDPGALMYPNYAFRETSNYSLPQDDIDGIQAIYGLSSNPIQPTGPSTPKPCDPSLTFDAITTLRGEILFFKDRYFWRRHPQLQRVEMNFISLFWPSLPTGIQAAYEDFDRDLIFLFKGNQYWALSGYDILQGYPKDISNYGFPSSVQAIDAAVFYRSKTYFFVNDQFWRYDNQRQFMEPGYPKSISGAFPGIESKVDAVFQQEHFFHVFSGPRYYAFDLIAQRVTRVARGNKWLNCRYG
Text: as §1, §2, §3, §4, §5

MMP-17 catalytic domain = molecular target: T4, MMP-17 catalytic domain (Homo sapiens, UniProt Q9ULZ9); experiment: Thiopeptolide substrate hydrolysis inhibition assay, MMP-17 catalytic domain; conditions: read-out: MMP-17 CD IC50
T4 construct: MMP-14 catalytic domain, and MMP-17 catalytic domain
T4 sequence (Q9ULZ9 126-295 limits assumed): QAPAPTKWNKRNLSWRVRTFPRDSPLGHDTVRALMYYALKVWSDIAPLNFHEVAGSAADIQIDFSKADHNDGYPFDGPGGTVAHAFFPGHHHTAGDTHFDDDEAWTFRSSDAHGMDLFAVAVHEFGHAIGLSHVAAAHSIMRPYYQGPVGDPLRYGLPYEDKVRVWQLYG
Text: as §1, §2, §3, §4, §5

IC50 (MMP-7 full-length): > 100 µM
IC50 (MMP-3 catalytic domain): 26 µM
IC50 (MMP-8 full-length): > 100 µM
IC50 (MMP-17 catalytic domain): > 100 µM
Compound: COc1ccc(CNC(=O)c2cc3c(=O)n(Cc4ccc(C(=O)O)cc4)cnc3cn2)cc1 [Compound Example 1, 4-[6-(4-methoxy-benzylcarbamoyl)-4-oxo-4H-pyrido[3,4-d]pyrimidin-3-ylmethyl]-benzoic acid]

Reference: US20050085447A1, “Pyrido[3,4-d]pyrimidine derivatives as matrix metalloproteinase-13 inhibitors” (Warner-Lambert Company LLC, priority 2003, published 2005)
